Test results taken from ChEMBL document CHEMBL1201862, “PubChem BioAssay data set” (2004).
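Cells were grown in 96-well plates and exposed to each compound for 48 hours at five concentrations; endpoints were interpolated linearly between bracketing concentrations, or set to the highest concentration if not reached. Abbreviation: GI50, concentration required for 50% inhibition of growth.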 The source made the active and inactive calls. Cut-off read from the data, not from the text of the source: active = GI50 up to about 1.1 µM and inactive = higher.

Tests used:
Assay in all cases: NCI-60 cell line screen, 48 h
[1] = system: HOP-92
[2] = system: U-251
[3] = system: COLO 205
[4] = system: SN12C
[5] = system: M19-MEL
[6] = system: UO-31
[7] = system: ACHN
[8] = system: SF-295
[9] = system: K562
[10] = system: SNB-78
[11] = system: RXF 393
[12] = system: NCI-H226
[13] = system: SNB-19
[14] = system: 786-0
[15] = system: M14
[16] = system: HL-60
[17] = system: SK-MEL-5
[18] = system: UACC-257
[19] = system: SF-268
[20] = system: A549
[21] = system: SK-OV-3
[22] = system: HT-29
[23] = system: DMS-114
[24] = system: NCI-H522
[25] = system: IGROV-1
[26] = system: DMS-273
[27] = system: HCC 2998
[28] = system: SW-620
[29] = system: HOP-62
[30] = system: RPMI-8226
[31] = system: NCI-H23
[32] = system: HCT-116
[33] = system: HCT-15
[34] = system: HOP-18
[35] = system: SK-MEL-28
[36] = system: LXFL 529
[37] = system: OVCAR-8
[38] = system: KM-20L2
[39] = system: DLD-1
[40] = system: OVCAR-4
[41] = system: UACC-62
[42] = system: SR
[43] = system: SNB-75
[44] = system: A498
[45] = system: XF498
[46] = system: MOLT-4
[47] = system: Malme-3M
[48] = system: SF-539
[49] = system: CCRF-CEM
[50] = system: EKVX
[51] = system: KM12
[52] = system: OVCAR-3
[53] = system: SK-MEL-2
[54] = system: CAKI-1
[55] = system: OVCAR-5
[56] = system: LOX IMVI
[57] = system: NCI-H460
[58] = system: TK-10

Compound: O=C1C2CCC(C2)C12CC1(c3ccccc3)C(=O)c3ccccc3N1O2 (centres undefined)
- GI50 [1]: 42.7 µM (inactive)
- GI50 [2]: > 100 µM (inactive)
- GI50 [3]: > 100 µM (inactive)
- GI50 [4]: > 100 µM (inactive)
- GI50 [5]: > 100 µM (inactive)
- GI50 [6]: > 100 µM (inactive)
- GI50 [7]: > 100 µM (inactive)
- GI50 [8]: 94.6 µM (inactive)
- GI50 [9]: > 100 µM (inactive)
- GI50 [10]: > 100 µM (inactive)
- GI50 [11]: > 100 µM (inactive)
- GI50 [12]: > 100 µM (inactive)
- GI50 [13]: > 100 µM (inactive)
- GI50 [14]: > 100 µM (inactive)
- GI50 [15]: > 100 µM (inactive)
- GI50 [16]: 42.1 µM (inactive)
- GI50 [17]: > 100 µM (inactive)
- GI50 [18]: > 100 µM (inactive)
- GI50 [19]: > 100 µM (inactive)
- GI50 [20]: > 100 µM (inactive)
- GI50 [21]: > 100 µM (inactive)
- GI50 [22]: > 100 µM (inactive)
- GI50 [23]: > 100 µM (inactive)
- GI50 [24]: > 100 µM (inactive)
- GI50 [25]: > 100 µM (inactive)
- GI50 [26]: 81.8 µM (inactive)
- GI50 [27]: > 100 µM (inactive)
- GI50 [28]: > 100 µM (inactive)
- GI50 [29]: > 100 µM (inactive)
- GI50 [30]: 58.9 µM (inactive)
- GI50 [31]: > 100 µM (inactive)
- GI50 [32]: > 100 µM (inactive)
- GI50 [33]: > 100 µM
- GI50 [34]: > 100 µM (inactive)
- GI50 [35]: > 100 µM (inactive)
- GI50 [36]: > 100 µM (inactive)
- GI50 [37]: > 100 µM (inactive)
- GI50 [38]: > 100 µM (inactive)
- GI50 [39]: > 100 µM (inactive)
- GI50 [40]: 75.5 µM (inactive)
- GI50 [41]: 91.8 µM (inactive)
- GI50 [42]: 67.5 µM (inactive)
- GI50 [43]: > 100 µM (inactive)
- GI50 [44]: > 100 µM (inactive)
- GI50 [45]: > 100 µM (inactive)
- GI50 [46]: 42.6 µM (inactive)
- GI50 [47]: > 100 µM (inactive)
- GI50 [48]: > 100 µM (inactive)
- GI50 [49]: > 100 µM (inactive)
- GI50 [50]: > 100 µM (inactive)

Compound: O=C1NC2C3CC(OCc4ccccc4)(OCc4ccccc4)C2OC3O1 (centres undefined)
- GI50 [1]: > 50 µM (inactive)
- GI50 [51]: > 50 µM (inactive)
- GI50 [3]: > 50 µM (inactive)
- GI50 [4]: > 50 µM (inactive)
- GI50 [5]: > 50 µM (inactive)
- GI50 [6]: > 50 µM (inactive)
- GI50 [8]: > 50 µM (inactive)
- GI50 [9]: > 50 µM (inactive)
- GI50 [52]: > 50 µM (inactive)
- GI50 [10]: < 0.005 µM (active)
- GI50 [12]: > 50 µM (inactive)
- GI50 [14]: > 50 µM (inactive)
- GI50 [15]: > 50 µM (inactive)
- GI50 [16]: > 50 µM (inactive)
- GI50 [17]: > 50 µM (inactive)
- GI50 [18]: 24.8 µM (inactive)
- GI50 [19]: > 50 µM (inactive)
- GI50 [20]: > 50 µM (inactive)
- GI50 [53]: > 50 µM (inactive)
- GI50 [21]: > 50 µM (inactive)
- GI50 [54]: > 50 µM (inactive)
- GI50 [55]: > 50 µM (inactive)
- GI50 [22]: > 50 µM (inactive)
- GI50 [23]: > 50 µM (inactive)
- GI50 [25]: > 50 µM (inactive)
- GI50 [26]: > 50 µM (inactive)
- GI50 [27]: > 50 µM (inactive)
- GI50 [28]: > 50 µM (inactive)
- GI50 [29]: > 50 µM (inactive)
- GI50 [30]: > 50 µM (inactive)
- GI50 [31]: > 50 µM (inactive)
- GI50 [32]: > 50 µM (inactive)
- GI50 [56]: > 50 µM (inactive)
- GI50 [33]: > 50 µM
- GI50 [34]: > 50 µM (inactive)
- GI50 [35]: > 50 µM (inactive)
- GI50 [36]: < 0.005 µM (active)
- GI50 [39]: > 50 µM (inactive)
- GI50 [40]: < 0.005 µM (active)
- GI50 [41]: > 50 µM (inactive)
- GI50 [43]: 48.6 µM (inactive)
- GI50 [44]: > 50 µM (inactive)
- GI50 [45]: > 50 µM (inactive)
- GI50 [46]: > 50 µM (inactive)
- GI50 [47]: > 50 µM (inactive)
- GI50 [48]: > 50 µM (inactive)
- GI50 [49]: > 50 µM (inactive)

Compound: Clc1ccc(SCCCCCCCCCCSc2ccc(Cl)cc2)cc1
- GI50 [1]: > 100 µM (inactive)
- GI50 [51]: > 55.1 µM (inactive)
- GI50 [2]: > 57.4 µM (inactive)
- GI50 [3]: > 100 µM (inactive)
- GI50 [4]: > 100 µM (inactive)
- GI50 [5]: > 100 µM (inactive)
- GI50 [6]: > 100 µM (inactive)
- GI50 [7]: > 58.7 µM (inactive)
- GI50 [8]: > 57.9 µM (inactive)
- GI50 [9]: > 91.2 µM (inactive)
- GI50 [52]: > 56.8 µM (inactive)
- GI50 [10]: > 100 µM (inactive)
- GI50 [11]: > 100 µM (inactive)
- GI50 [12]: > 100 µM (inactive)
- GI50 [13]: > 100 µM (inactive)
- GI50 [14]: > 55.6 µM (inactive)
- GI50 [15]: > 100 µM (inactive)
- GI50 [16]: > 100 µM (inactive)
- GI50 [17]: > 55.1 µM (inactive)
- GI50 [18]: > 57 µM (inactive)
- GI50 [19]: > 100 µM (inactive)
- GI50 [20]: > 73.8 µM (inactive)
- GI50 [53]: > 56.1 µM (inactive)
- GI50 [21]: > 100 µM (inactive)
- GI50 [54]: > 100 µM (inactive)
- GI50 [55]: > 61 µM (inactive)
- GI50 [22]: > 100 µM (inactive)
- GI50 [23]: > 100 µM (inactive)
- GI50 [24]: > 100 µM (inactive)
- GI50 [25]: > 100 µM (inactive)
- GI50 [26]: > 100 µM (inactive)
- GI50 [27]: > 46.1 µM (inactive)
- GI50 [28]: 37.5 µM (inactive)
- GI50 [29]: > 76.2 µM (inactive)
- GI50 [30]: > 100 µM (inactive)
- GI50 [31]: > 100 µM (inactive)
- GI50 [32]: > 100 µM (inactive)
- GI50 [56]: > 100 µM (inactive)
- GI50 [33]: > 54.2 µM
- GI50 [34]: > 100 µM (inactive)
- GI50 [35]: > 100 µM (inactive)
- GI50 [36]: > 100 µM (inactive)
- GI50 [37]: > 61 µM (inactive)
- GI50 [57]: > 59.7 µM (inactive)
- GI50 [38]: > 63.7 µM (inactive)
- GI50 [39]: > 100 µM (inactive)
- GI50 [40]: > 100 µM (inactive)
- GI50 [41]: > 100 µM (inactive)
- GI50 [43]: > 100 µM (inactive)
- GI50 [44]: > 73.8 µM (inactive)
- GI50 [45]: > 100 µM (inactive)
- GI50 [46]: > 100 µM (inactive)
- GI50 [47]: > 56.5 µM (inactive)
- GI50 [48]: > 100 µM (inactive)
- GI50 [58]: > 61.9 µM (inactive)
- GI50 [49]: > 100 µM (inactive)
- GI50 [50]: > 70 µM (inactive)
